≈ marks a conversion by molar mass, not a printed value. Where two headings read alike, the source gives them in different places. Where a SMILES comes first, the peptide text is derived from it. Bridges are numbered along the chain shown (N, C = ends). The star is where a group is joined. Lauroyl = CCCCCCCCCCCC(=O)*
Experiments:
[1] = tested on: E. coli (Ec, ATCC 25922); test: microbe, parasite or virus in culture; type: cell-based, Escherichia coli; settings: for MIC: Escherichia coli
Experimental: (§1) All cyclic and linear peptides were screened for antibacterial activity against four Gram-positive strains: B. subtilis (Bs, ATCC 23857), C. glutamicum (Cg, ATCC 13032), S. aureus (Sa, ATCC 9144) and S. epidermidis RP62A (Se, ATCC 35984), and two Gram-negative strains: E. coli (Ec, ATCC 25922) and P. aeruginosa (Pa, ATCC 27853). The activity was assessed using a broth microdilution assay according to a modified CLSI-based method. Briefly, overnight bacterial cultures were grown in Mueller–Hinton (MH) broth medium (Difco Laboratories, Detroit, MI, USA) for 2 h at room temperature. The optical density (OD600) was measured, and the bacterial suspensions were adjusted to 2.5–3 × 10^4 CFU/mL in MH medium. The bacterial suspension (50 µL) was distributed in 96-well plates (Nunc, Roskilde, Denmark) preloaded with two-fold dilution series (256 to 1 µg/mL) of peptide solutions (50 µL), giving a final well volume of 100 µL. The microplates were incubated in an EnVision 2103 microplate reader (PerkinElmer, Llantrisant, UK) at 35 °C, with OD595 recorded every hour for 24 h. MIC was defined as the lowest concentration of peptides showing an optical density less than 10% of the negative (growth) control, consisting of bacterial suspension and water. Polymyxin B sulfate (Sigma-Aldrich, St. Louis, MO, USA) and chlorhexidine acetate (CHX, Fresenius Kabi, Halden, Norway), both with concentrations ranging from 12.5 to 0.09 μg/mL, served as positive (growth inhibition) controls. All peptides were tested in triplicate.

[2] = tested on: C. albicans (Ca, ATCC 10231); test: microbe, parasite or virus in culture; type: cell-based, Candida albicans
Experimental: (§2) The synthesized peptides were screened for antifungal activity against the molds A. pullulans (Ap) and Rhodotorula sp. (Rh) (both obtained from Professor Arne Tronsmo, The Norwegian University of Life Sciences, Ås, Norway) and the yeast C. albicans (Ca, ATCC 10231) as previously described. In short, fungal spores were grown in potato dextrose broth media (Difco) containing 2% D(+)-glucose (Merck, Darmstadt, Germany) at 25–30 °C while shaking at 200 rpm overnight. The cultures were diluted with a dextrose media containing glucose to a concentration of approx. 4 × 10^5 spores/mL. Aliquots of the cultures (50 µL) were transferred to 96 well microtiter plates preloaded with the synthetic peptides (50 µL) in two-fold serial dilutions (256 to 1 µg/mL). Polymyxin B and CHX (both with concentrations ranging from 12.5 to 0.09 μg/mL) served as positive antibiotic controls. The microtiter plates containing the fungal spores and the test peptides were incubated at room temperature for 48 h and OD600 was recorded using a Synergy H1 Hybrid microplate reader system (BioTek, Winooski, VT, USA). MIC was defined as the lowest peptide concentration showing an optical density less than 10% of the negative (growth) control. All experiments were performed in triplicate.

[3] = tested on: Rhodotorula sp. (Rh); test: microbe, parasite or virus in culture; type: cell-based; settings: 48 h
Experimental: as §2

[4] = tested on: S. aureus (Sa, ATCC 9144); test: microbe, parasite or virus in culture; type: cell-based, Staphylococcus aureus
Experimental: as §1

[5] = tested on: A. pullulans (Ap); test: microbe, parasite or virus in culture; type: cell-based, Aurobasidium pollulans; settings: 48 h
Experimental: as §2

[6] = tested on: P. aeruginosa (Pa, ATCC 27853); test: microbe, parasite or virus in culture; type: cell-based, Pseudomonas aeruginosa
Experimental: as §1

[7] = tested on: S. epidermidis RP62A (Se, ATCC 35984); test: microbe, parasite or virus in culture; type: cell-based, Staphylococcus epidermidis
Experimental: as §1

[8] = tested on: C. glutamicum (Cg, ATCC 13032); test: microbe, parasite or virus in culture; type: cell-based, Corynebacterium glutamicum
Experimental: as §1

[9] = tested on: E. coli MC4100 (wild type, WT); test: microbe, parasite or virus in culture; settings: for MIC: Escherichia coli, read-out: MIC E. coli MC4100 (WT)
Experimental: as §1
(§3) MIC values were determined for all cyclic peptides against two E. coli strains: wild type (WT) MC4100 and the hyperpermeable variant NR698, having a deficient outer membrane. The NR698 strain, containing lptD4213/imp4213 mutation, was kindly provided by M. Grabowicz (Emory University School of Medicine, Rollins Research Center, Atlanta, GA, USA). The assay was performed in the same way as previously described for the antibacterial MIC assay.

[10] = tested on: E. coli NR698 (outer membrane permeable mutant, imp4213); test: microbe, parasite or virus in culture; settings: for MIC E. coli NR698 (mutant): MC4100 NR698 imp4213, deficient outer membrane; for MIC: Escherichia coli, read-out: MIC E. coli NR698 (mutant)
Experimental: as §1, §3

[11] = tested on: B. subtilis (Bs, ATCC 23857); test: microbe, parasite or virus in culture; type: cell-based, Bacillus subtilis
Experimental: as §1

[12] = tested on: all bacterial strains; test: Antibacterial MIC assay, all bacterial strains together (range or geometric mean); type: cell-based; settings: for GM (geometric mean of the MIC values against all bacterial strains): Table 1, six bacterial strains; for GM of MIC Tot. bact.: Table S3, all bacterial test strains, MIC >256 set to 256
Experimental: The selectivity index (SI) of the peptides towards bacteria over eukaryotic cells was calculated using the geometric mean (GM) of the MIC values against all bacterial test strains, according to the method by Orlov et al.. The SI for each peptide was determined as the ratio of the RBC-EC50 value by the corresponding GM value. Larger SI values indicate greater selectivity for microbial cells. […] In general, the SI was higher against the Gram-positive bacteral strains than the Gram-negative strains. (Table S3). Overall, peptides displaying EC50 < 100 µg/mL were considered too haemolytic to be of interest for further exploration.
as §1

[13] = tested on: Gram-positive bacterial strains; settings: Table S3; MIC >256 set to 256
Experimental: as §1

[14] = tested on: fungi (A. pullulans, C. albicans, Rhodotorula sp.); test: Antifungal MIC assay, all fungi together (range or geometric mean); type: cell-based; settings: Table S3; MIC >128 set to 128
Experimental: as §2

[15] = tested on: Gram-negative bacterial strains (E. coli and P. aeruginosa); test: Antibacterial MIC assay, Gram-negative strains together (range or geometric mean); type: cell-based; settings: Table S3; MIC >256 set to 256
Experimental: as §1

[16] = tested on: human red blood cells (RBC); test: Haemolytic activity assay; type: cell-based
Experimental: The synthetized lipopeptides were screened for haemolytic activity against human red blood cells (RBC), in concentrations ranging from 500 to 3.9 μM, following a previously described protocol. In brief, haemolysis was determined using a heparinizied (10 IU/mL) fraction of freshly drawn human blood. A second fraction of blood, which was collected in test tubes containing ethylenediaminetetraacetic acid (EDTA, Vacutest, KIMA, Arzergrande, Italy), was used for determination of the hematocrit (hct). Plasma was removed from heparinized blood by washing three times with prewarmed phosphate-buffered saline (PBS) before being adjusted to a hematocrit of 4%. Peptides dissolved in dimethyl sulfoxide (DMSO) were further diluted with PBS to a final DMSO content of ≤1%. Triton X-100 (Sigma-Aldrich, St. Louis, MO, USA), used at a final concentration of 0.1%, served as a positive control for 100% haemolysis, whereas 1% DMSO in PBS buffer served as a negative control where no toxicity was detected. Duplicates of test solutions and erythrocytes, with 1% hct final concentration, were prepared in a 96-well polypropylene V-bottom plate (Nunc, Fischer scientific, Oslo, Norway). They were incubated under agitation at 37 °C and 800 rpm for 1 h. After centrifugation (5 min, 3000× g), 100 µL from each well were transferred to a flat-bottomed 96-well plate and absorbance was measured at 545 nm with a microplate reader (SpectraMax 190, Molecular Devices, San Jose, CA, USA). After subtracting PBS background, the percentage of haemolysis was calculated as the ratio of the absorbance in the peptide-treated and surfactant-treated samples. Three independent experiments were performed, and EC50 (the concentration giving 50% haemolysis) values are presented as averages.

[17] = ATCC25922, Table 2, laboratory strain, read-out: MIC E. coli ATCC 25922 (from Table 1)

| Compound | MIC E. coli NR698 (mutant) [10] [µg/mL] | MIC [9] [µg/mL] | MIC [10] [µg/mL] | Antimicrobial Activity (MIC) Gram − Ec ([1]; ATCC 25922, 24 h) [µg/mL] | GM (geometric mean of the MIC values against all bacterial strains) [12] [µg/mL] | GM of MIC Tot. bact. [12] [µg/mL] | Antimicrobial Activity (MIC) Fungi Ca ([2]; ATCC 10231, 48 h) [µg/mL] | Antimicrobial Activity (MIC) Fungi Rh [3] [µg/mL] | Antimicrobial Activity (MIC) Gram + Sa ([4]; ATCC 9144, 24 h) [µg/mL] | Antimicrobial Activity (MIC) Fungi Ap [5] [µg/mL] | Antimicrobial Activity (MIC) Gram − Pa ([6]; ATCC 27853, 24 h) [µg/mL] | GM of MIC G+ [13] [µg/mL] | Antimicrobial Activity (MIC) Gram + Se ([7]; ATCC 35984, 24 h) [µg/mL] | GM of MIC Fungi [14] [µg/mL] | Antimicrobial Activity (MIC) Gram + Cg ([8]; ATCC 13032, 24 h) [µg/mL] | GM of MIC G- [15] [µg/mL] | Antimicrobial Activity (MIC) Gram + Bs ([11]; ATCC 23857, 24 h) [µg/mL] | MIC [1, 17] [µg/mL] | also measured |
| --- | --- | --- | --- | --- | --- | --- | --- | --- | --- | --- | --- | --- | --- | --- | --- | --- | --- | --- | --- |
| Polymyxin B [reference compound] | 0.2 |  |  |  |  |  |  |  |  |  |  |  |  |  |  |  |  |  | Antimicrobial Activity (MIC) Gram − Ec ([1]; E. coli ATCC 25922, 24 h): 3.1 µg/mL; MIC E. coli ATCC 25922 (from Table 1) ([1]; Table 2, laboratory strain): 3.1 µg/mL; Antimicrobial Activity (MIC) Fungi Ca ([2]; C. albicans ATCC 10231, 48 h): 12.5 µg/mL; Antimicrobial Activity (MIC) Fungi Rh ([3]; Rhodotorula sp.): 3.1 µg/mL; Antimicrobial Activity (MIC) Gram + Sa ([4]; S. aureus ATCC 9144, 24 h): 12.5 µg/mL; Antimicrobial Activity (MIC) Fungi Ap ([5]; A. pullulans): 3.1 µg/mL; Antimicrobial Activity (MIC) Gram − Pa ([6]; P. aeruginosa ATCC 27853, 24 h): 3.1 µg/mL; Antimicrobial Activity (MIC) Gram + Se ([7]; S. epidermidis RP62A ATCC 35984, 24 h): 6.3 µg/mL; Antimicrobial Activity (MIC) Gram + Cg ([8]; C. glutamicum ATCC 13032, 24 h): 3.1 µg/mL; MIC E. coli MC4100 (WT) ([9]; wild type): 0.8 µg/mL; Antimicrobial Activity (MIC) Gram + Bs ([11]; B. subtilis ATCC 23857, 24 h): 3.1 µg/mL |
| CN[C@H](CC(C)C)C(=O)N[C@H]1C(=O)N[C@@H](CC(N)=O)C(=O)N[C@H]2C(=O)N[C@H]3C(=O)N[C@H](C(=O)N[C@H](C(=O)O)c4cc(O)cc(O)c4-c4cc3ccc4O)[C@H](O)c3ccc(c(Cl)c3)Oc3cc2cc(c3O[C@@H]2O[C@H](CO)[C@@H](O)[C@H](O)[C@H]2O[C@H]2C[C@](C)(N)[C@H](O)[C@H](C)O2)Oc2ccc(cc2Cl)[C@H]1O [Vancomycin, reference compound] |  | 64 (≈ 44.2 µM) | 0.3 (≈ 0.207 µM) |  |  |  |  |  |  |  |  |  |  |  |  |  |  |  | MIC ([1]; ATCC25922, read-out: MIC E. coli ATCC 25922 (from Table 1)): 125 µg/mL (≈ 86.3 µM) |
| CC(C)C[C@H](NC(=O)[C@H](CCCCN)NC(=O)[C@@H]1CSSC[C@H](N)C(=O)NCC(=O)N[C@@H](CCCCN)C(=O)N[C@@H](CCCCN)C(=O)N2CCC[C@H]2C(=O)NCC(=O)NCC(=O)N[C@@H](Cc2c[nH]c3ccccc23)C(=O)N[C@@H](CCCCN)C(=O)N1)C(N)=O [cTurg-1] (H-CGKKPGGWKCKL-NH2; disulfide 1-10; N-terminus assumed) | 64 (≈ 49.2 µM) |  |  | >256 | 161 | 161 | 128 | 64 | >256 | 32 | >256 | 128 | >256 | 64 | 16 | 256 | 256 |  | MIC against all bacterial strains ([12]; span over the strains): ≥ 256 µg/mL |
| CC1(C)S[C@@H]2[C@H](NC(=O)[C@H](N)c3ccccc3)C(=O)N2[C@H]1C(=O)O [Ampicillin, reference compound] |  | 8 (≈ 22.9 µM) |  |  |  |  |  |  |  |  |  |  |  |  |  |  |  | 8 (≈ 22.9 µM) |  |
| O=C(N[C@H](CO)[C@H](O)c1ccc([N+](=O)[O-])cc1)C(Cl)Cl [Chloramphenicol, reference compound] |  | 12.5 (≈ 38.7 µM) | 3.1 (≈ 9.59 µM) |  |  |  |  |  |  |  |  |  |  |  |  |  |  | 1.8 (≈ 5.57 µM) |  |
| CCCCCCCCCCCC(=O)N[C@@H](CS)C(=O)NCC(=O)N[C@@H](CCCCN)C(=O)N[C@@H](CCCCN)C(=O)N1CCC[C@H]1C(=O)NCC(=O)NCC(=O)N[C@@H](Cc1c[nH]c2ccccc12)C(=O)N[C@@H](CCCCN)C(=O)N[C@@H](CS)C(=O)N[C@@H](CCCCN)C(=O)N[C@@H](CC(C)C)C(N)=O [Peptide C12-Turg-1, C12- CGKKPGGWKC KL-NH2] (Lauroyl-CGKKPGGWKCKL-NH2) |  |  |  | 8 | 6 | 6 | 64 | 8 | 8 | 32 | 16 | 5 | 4 | 25 | 4 | 11 | 4 |  | Selectivity index (SI) G- ([16]; Table S3, EC50/GM of Gram-negative strains, highest tested concentration used where EC50 above it): > 86; Selectivity index (SI) G+ ([16]; Table S3, EC50/GM of Gram-positive strains, highest tested concentration used where EC50 above it): > 204; Selectivity index (SI) Fungi ([16]; Table S3, EC50/GM of fungi, highest tested concentration used where EC50 above it): > 38; RBC Tox. (EC50), haemolytic activity ([16]; human RBC, 1 h, 37 °C, concentration giving 50% haemolysis): >971 µg/mL |
